In brackets after ≈: the same amount, converted by molar mass.
Key:
[1] = Inhibition of full-length human MEK
MCF7 = experiment: Cytotoxicity against human MCF7 cells; type: functional, cell-based
[2] = Inhibition of V-ATPase (unknown origin); design: species or system Homo sapiens
14-3-3 eta/c-RAF = 14-3-3 eta/c-RAF (Homo sapiens, UniProt P04049+Q04917); experiment: Stabilization of 14-3-3 eta (unknown origin)/ c-Raf (unknown origin); type: protein-complex assay
[3] = Anti-tumor activity against mouse lewis lung carcinoma cells allografted in mouse assessed as reduction in tumor growth at 2 mg/kg, po; type: functional; design: scale not given: the % may be the effect or the level left
[4] = target: T1, Heat shock factor protein 1 (Homo sapiens, UniProt Q00613); experiment: Induction of HSF-1 (unknown origin) degradation assessed as ATPase activity by colorimetric assay
T1 sequence (Q00613 whole entry): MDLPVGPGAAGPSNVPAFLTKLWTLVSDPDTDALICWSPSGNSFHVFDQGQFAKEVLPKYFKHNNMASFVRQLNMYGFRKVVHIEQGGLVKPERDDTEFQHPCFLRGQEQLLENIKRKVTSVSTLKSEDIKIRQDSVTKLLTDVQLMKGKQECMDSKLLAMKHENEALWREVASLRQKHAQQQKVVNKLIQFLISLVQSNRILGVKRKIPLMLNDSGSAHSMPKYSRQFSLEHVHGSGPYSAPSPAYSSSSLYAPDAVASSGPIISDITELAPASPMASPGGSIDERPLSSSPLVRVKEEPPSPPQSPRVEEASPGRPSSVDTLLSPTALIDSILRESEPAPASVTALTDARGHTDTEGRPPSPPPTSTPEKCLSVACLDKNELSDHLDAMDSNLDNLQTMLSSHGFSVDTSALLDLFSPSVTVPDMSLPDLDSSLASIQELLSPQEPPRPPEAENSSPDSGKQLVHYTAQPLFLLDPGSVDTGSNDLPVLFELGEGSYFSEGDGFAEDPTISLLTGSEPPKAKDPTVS

[5] = Inhibition of PI3K (unknown origin); design: species or system Homo sapiens
Tubulin = experiment: Binding affinity to tubulin (unknown origin) assessed as dissociation constant; type: protein-complex assay, Homo sapiens
Tubulin (Homo sapiens) = Tubulin (Homo sapiens) (UniProt P68371+Q9H4B7+P0DPH7+P68366+Q13509+Q71U36+P04350+Q3ZCM7+P07437+P68363+Q9BQE3+Q6PEY2+Q13885+Q9BVA1+Q9BUF5); experiment: Inhibition of microtubule polymerization in human HeLa cells at 20 uM relative to control; type: cell-based
HeLa = experiment: Antimitotic activity against human HeLa cells; type: functional, cell-based
[6] = Cytotoxicity against human endothelial cells; type: toxicity, cell-based; conditions: endothelial cell

Sequence of 14-3-3 eta/c-RAF (P04049 whole entry): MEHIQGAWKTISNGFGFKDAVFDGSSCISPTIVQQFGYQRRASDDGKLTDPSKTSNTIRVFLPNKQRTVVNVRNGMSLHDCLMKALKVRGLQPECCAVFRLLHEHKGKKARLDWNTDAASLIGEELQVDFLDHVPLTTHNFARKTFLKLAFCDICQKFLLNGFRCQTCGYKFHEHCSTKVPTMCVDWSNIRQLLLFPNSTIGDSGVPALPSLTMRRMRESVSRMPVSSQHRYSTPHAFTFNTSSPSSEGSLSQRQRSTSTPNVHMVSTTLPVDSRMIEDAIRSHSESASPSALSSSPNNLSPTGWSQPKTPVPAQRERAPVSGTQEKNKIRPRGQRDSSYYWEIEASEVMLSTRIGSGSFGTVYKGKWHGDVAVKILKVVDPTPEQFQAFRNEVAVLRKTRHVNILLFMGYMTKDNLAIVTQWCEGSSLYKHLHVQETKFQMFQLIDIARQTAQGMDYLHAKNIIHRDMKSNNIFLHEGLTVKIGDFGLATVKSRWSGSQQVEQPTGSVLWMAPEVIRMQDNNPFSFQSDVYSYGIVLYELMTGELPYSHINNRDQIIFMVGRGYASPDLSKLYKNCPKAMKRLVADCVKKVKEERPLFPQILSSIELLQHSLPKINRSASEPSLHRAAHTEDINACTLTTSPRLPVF
Sequence of 14-3-3 eta/c-RAF (Q04917 whole entry): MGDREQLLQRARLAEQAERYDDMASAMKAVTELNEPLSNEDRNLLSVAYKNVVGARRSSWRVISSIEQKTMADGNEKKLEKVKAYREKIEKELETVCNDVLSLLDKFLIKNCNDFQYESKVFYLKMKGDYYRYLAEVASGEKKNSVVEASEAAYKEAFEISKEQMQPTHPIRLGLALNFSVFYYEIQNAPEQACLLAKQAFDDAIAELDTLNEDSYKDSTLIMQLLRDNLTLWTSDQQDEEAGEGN

`COc1cc(O)c2c(c1)CCC[C@H](O)[C@H](O)C(=O)/C=C\C[C@H](C)OC2=O` showed an IC50 [1] of 4 µM.
`C[C@]12CCC3=C(C(=O)c4occ5c4[C@]3(C)CCC5=O)[C@@H]1CC[C@@H]2O` showed an IC50 (MCF7) of 15 µM.
`CC[C@@H](C)[C@@H]1NC(=O)[C@H]2CCCN2C(=O)[C@@H](CC(C)C)OC(=O)CCNC(=O)[C@H](C)N(C)C(=O)[C@H](C(C)C)N(C)C1=O` showed an IC50 [2] of 5.4 µM.
`COC[C@H]1O[C@@H](O[C@@H]2C3=C(C(C)C)CC[C@]3(C)/C=C3\[C@@H](CC[C@]3(O)COC)[C@@H](C)[C@H]2O)[C@H](O)[C@H]2OC3O[C@]21O[C@@]3(C)[C@@H]1CO1` showed an EC50 (14-3-3 eta/c-RAF) of 60 µM.
`C[C@H]1C/C=C/[C@H]2[C@@H]3O[C@]3(C)[C@@H](C)[C@H]3[C@H](Cc4ccccc4)NC(=O)[C@]32OC(=O)O/C=C/[C@@](C)(O)C1=O` [CYTOCHALASIN E] showed an Activity [3] of 72%.
For `C[C@H]1CCC/C=C/C(=O)c2c(O)cc(O)cc2CC(=O)O1` [DEHYDROCURVULARIN], the IC50 [4] was 15.3 µM.
`C[C@@]12c3ccc4c(c3C(=O)c3occ(c31)C(=O)C[C@H]2O)CCC4=O` [DEMETHOXYVIRIDIN] showed an IC50 [5] of 0.0066 µM.
With `COC1=CC(=O)C[C@@H](C)[C@]12Oc1c(Cl)c(OC)cc(OC)c1C2=O` [GRISEOFULVIN] the Kd (Tubulin) was 300 µM, the inhibition (Tubulin (Homo sapiens)) was 75% and the IC50 (HeLa) was 25 µM.
`CO[C@@H]1[C@H](OC(=O)NC(=O)CCl)CC[C@]2(CO2)[C@H]1[C@@]1(C)O[C@@H]1CC=C(C)C` [O-CHLOROACETYLCARBAMOYLFUMAGILLOL] gave an IC50 [6] of 0.01 ng/mL (≈ 0.0249 nM).

Source: ChEMBL document CHEMBL5233254, “Anticancer fungal natural products: Mechanisms of action and biosynthesis” (Eur J Med Chem, 2020)
